Patent publication US20100297194A1, “FORMULATION FOR ORAL ADMINISTRATION OF APOPTOSIS PROMOTER” (priority 2009, published 2010)
Like-named read-outs stand apart in the source and are kept apart here. Values belong to the compound of their own block, whether it stands above or below them.

Assays:
[1] = solubility in lipid solvents (Example 1); type: physicochemical; settings: ambient conditions;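 further: solubility in mg/g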
Description: Solubility of ABT-263 parent (free base, crystalline Form I) and ABT-263 bis-HCl salt was tested in a variety of lipid solvents and solvent mixtures in ambient conditions. “PE-91” is Phosal 53 MCT™+ethanol, 9:1 by volume. “LOT-343” is Labrafil M 1944 CS™+oleic acid+Tween 80™, 30:40:30 by weight.
In some cases, indicated in Table 4 by an asterisk (*), solubility was initially high but precipitation occurred upon standing.

[2] = rat; 2 mg/ml solution in PEG-400/DMSO; cited from earlier work
[3] = monkey; similar solution in PEG-400/DMSO; cited from earlier work
[4] = drug solubility in ternary excipient systems (Example 2); type: physicochemical; parameters: key: ✓: vehicle miscible, or drug fully dissolved in vehicle; X: vehicle immiscible or miscible but turbid, or residual solids present (due to undissolved drug or precipitation); settings: 10% salt, 20% free base, listed as ABT-263 free base
Text: Solvents evaluated included Labrafil M 1944 CS™, Imwitor 742™ oleic acid, Capmul PG-8™, Capmul PG-12™, Lauroglycol 90™ and Phosal 53 MCT™. Surfactants evaluated included Tween™ 80, Cremophor RH40™, Gelucire 44/14™ and Labrasol™.

[5] = oral bioavailability in a rat model; settings: in vivo, in 90% phosphatidylcholine+medium chain triglycerides 53/29 and 10% ethanol

Solubility ([1]; in Cremophor RH40): >226 mg/g
Solubility ([1]; in LOT-343 (Labrafil M 1944 CS+oleic acid+Tween 80 30:40:30 by weight)): >479 mg/g
Solubility ([1]; in Labrafil M 1944 CS, listed as ABT-263 parent): >265 mg/g
Solubility ([1]; in Labrafil M 2125 CS, listed as ABT-263 parent): >290 mg/g
Solubility ([1]; in Labrasol, listed as ABT-263 parent): >242 mg/g
Solubility ([1]; in Lipoid S75 MCT, listed as ABT-263 parent): 150 to 200 mg/g
Solubility ([1]; in Miglyol 810, listed as ABT-263 parent): <76 mg/g
Solubility ([1]; in PE-91 (Phosal 53 MCT+ethanol 9:1 by volume), listed as ABT-263 parent): >250 mg/g
Solubility ([1]; in PEG-400, listed as ABT-263 parent): >200 mg/g
Solubility ([1]; in Phosal 53 MCT): >300 mg/g
Solubility ([1]; in Tween 20, listed as ABT-263 parent): >256 mg/g
Solubility ([1]; in Tween 80, listed as ABT-263 parent): >256 mg/g
Solubility ([1]; in corn oil, listed as ABT-263 parent): <86 mg/g
Solubility ([1]; in oleic acid, listed as ABT-263 parent): >514 mg/g
Solubility ([1]; in poloxamer 124, listed as ABT-263 parent): >231 mg/g
Solubility ([1]; in sesame oil, listed as ABT-263 parent): <75 mg/g
ABT-263 solubility ([4]; ILC (Imwitor 742/Labrafil M 1944 CS/Cremophor RH40) 50:40:10 by weight): X
ABT-263 solubility ([4]; ILC (Imwitor 742/Labrafil M 1944 CS/Cremophor RH40) 60:30:10 by weight): X
ABT-263 solubility ([4]; ILL (Imwitor 742/Labrafil M 1944 CS/Labrasol) 40:40:20 by weight): X
ABT-263 solubility ([4]; ILL (Imwitor 742/Labrafil M 1944 CS/Labrasol) 50:30:20 by weight): X
ABT-263 solubility ([4]; ILL (Imwitor 742/Labrafil M 1944 CS/Labrasol) 50:40:10 by weight): X
ABT-263 solubility ([4]; ILL (Imwitor 742/Labrafil M 1944 CS/Labrasol) 60:30:10 by weight): X
ABT-263 solubility ([4]; LIT (Labrafil M 1944 CS/Imwitor 742/Tween 80) 30:40:30 by weight): X
ABT-263 solubility ([4]; LIT (Labrafil M 1944 CS/Imwitor 742/Tween 80) 40:30:30 by weight): X
ABT-263 solubility ([4]; LLL (Lauroglycol 90/Labrafil M 1944 CS/Labrasol) 50:40:10 by weight): X
ABT-263 solubility ([4]; LLL (Lauroglycol 90/Labrafil M 1944 CS/Labrasol) 60:30:10 by weight): X
Compound: CC1(C)CCC(c2ccc(Cl)cc2)=C(CN2CCN(c3ccc(C(=O)NS(=O)(=O)c4ccc(N[C@H](CCN5CCOCC5)CSc5ccccc5)c(S(=O)(=O)C(F)(F)F)c4)cc3)CC2)C1 [ABT-263, N-(4-(4-((2-(4-chlorophenyl)-5,5-dimethyl-1-cyclohex-1-en-1-yl)methyl)piperazin-1-yl)benzoyl)-4-(((1R)-3-(morpholin-4-yl)-1-((phenylsulfanyl)methyl)propyl)amino)-3-((trffluoromethyl)sulfonyl)benzene-sulfonamide]
oral bioavailability [2]: around 20%
oral bioavailability [3]: around 20%

bioavailability [5]: 3.3%
Compound: CN(C)CC[C@H](CSc1ccccc1)Nc1ccc(S(=O)(=O)NC(=O)c2ccc(N3CCN(Cc4ccccc4-c4ccc(Cl)cc4)CC3)cc2)cc1[N+](=O)[O-] [ABT-737, N-(4-(4-((4′-chloro-(1,1′-biphenyl)-2-yl)methyl)piperazin-1-yl)benzoyl)-4-(((1R)-3-(dimethylamino)-1-((phenylsulfanyl)methyl)propyl)amino)-3-nitrobenzenesulfonamide]
